# Patent US10787413B2, “Derivatives of curcuminoids and use thereof as an anticancer agent” (CHINA MEDICAL UNIVERSITY, priority 2016, dated 2020)
# Experiments:
# MDA-MB-157 = assay: Cell viability, MDA-MB-157 breast cancer cells; format: cell-based; settings: Homo sapiens; MDA-MB-157 (Triple negative), treated for 24 h
# Experimental: Cell viability was evaluated by measuring the reduction in MTT to yield blue formazan. Cells were cultured in 96-well plates, allowed to attach overnight, and then treated with compounds. After treatment, MTT solution (1 mg/ml) was added to each well, and plates were incubated for another 4 h. Medium were removed, blue formazan was dissolved in DMSO, and the absorbance was read at 570 nm^20.
# MDA-MB-231 cells = assay: cDNA microarray; format: cell-based, human
# Experimental: The cells were incubated with or without 21a. After exposure, cell pellets were collected, and the total RNA from each treatment was purified using the Qiagen RNeasy Mini Kit (Qiagen, Valencia, Calif., USA). The RNA purity was determined to check the quality at 260/280 nm using a NanoDrop 1000 Spectrophotometer (Thermo Fisher Scientific, Wilmington, Del., USA). mRNA was amplified and labeled using the Gene-Chip WT Sense Target Labeling and Control Reagents kit (Affymetrix, Santa Clara, Calif., USA) for expression analysis. The synthesized cDNA was labeled with fluorescence and then hybridized for 17 h using AffymetrixGeneChip Human Gene 1.0 ST array (Affymetrix) to determine microarray hybridization following the manufacturer's protocols. The arrays were subsequently washed using Fluidics Station 450 (Affymetrix), stained with streptavidin-phycoerythrin (Gene-Chip Hybridization, Wash, and Stain kit, Affymetrix), and scanned on a GeneChip Scanner 3000 (Affymetrix). The localized concentrations of fluorescent molecules were quantitated and analyzed using Expression Console Software (Affymetrix) with default RMA parameters as previously described (Chang et al. 2012; Liu et al. 2013). […]
structure (smiles),measurement,setting,value
"COc1cc(/C=C/C(=O)/C=C(O)/C=C/c2ccc(OC(=O)C(C)(CO)CO)c(OC)c2)ccc1OC(=O)C(C)(CO)CO [Compound 21a, ((1E,3Z,6E)-3-Hydroxy-5-oxohepta-1,3,6-triene-1,7-diyl)bis(2-methoxy-4,1-phenylene) bis(3-hydroxy-2-(hydroxymethyl)-2-methylpropenoate)]",IC50,MDA-MB-157,9.23 ± 0.11 µM
same,genes down-regulated,MDA-MB-231 cells; at least 2.5 folds,28 genes
same,genes up-regulated,MDA-MB-231 cells; at least 2.5 folds,69 genes
same,log2 (Ratio) ATF3,"MDA-MB-231 cells; mRNA, MDA-MB-231 cells, 24-h treatment, ID PH_hs_0000057",3.698
same,log2 (Ratio) IL12A,"MDA-MB-231 cells; mRNA, MDA-MB-231 cells, 24-h treatment, ID PH_hs_0000076",4.587
same,log2 (Ratio) DUSP2,"MDA-MB-231 cells; mRNA, MDA-MB-231 cells, 24-h treatment, ID PH_hs_0000156",4.094
same,log2 (Ratio) SRGN,"MDA-MB-231 cells; mRNA, MDA-MB-231 cells, 24-h treatment, ID PH_hs_0000255",2.917
same,log2 (Ratio) MMP10,"MDA-MB-231 cells; mRNA, MDA-MB-231 cells, 24-h treatment, ID PH_hs_0000305",4.942
same,log2 (Ratio) SLC25A25,"MDA-MB-231 cells; mRNA, MDA-MB-231 cells, 24-h treatment, ID PH_hs_0000566",2.529
same,log2 (Ratio) DNAJB9,"MDA-MB-231 cells; mRNA, MDA-MB-231 cells, 24-h treatment, ID PH_hs_0000684",3.854
same,log2 (Ratio) RND3,"MDA-MB-231 cells; mRNA, MDA-MB-231 cells, 24-h treatment, ID PH_hs_0000694",2.626
same,log2 (Ratio) SESN2,"MDA-MB-231 cells; mRNA, MDA-MB-231 cells, 24-h treatment, ID PH_hs_0000852",3.324
same,log2 (Ratio) OMA1,"MDA-MB-231 cells; mRNA, MDA-MB-231 cells, 24-h treatment, ID PH_hs_0000866",−2.613
same,log2 (Ratio) SENP5,"MDA-MB-231 cells; mRNA, MDA-MB-231 cells, 24-h treatment, ID PH_hs_0001262",2.748
same,log2 (Ratio) SAT1,"MDA-MB-231 cells; mRNA, MDA-MB-231 cells, 24-h treatment, ID PH_hs_0002492",3.366
same,log2 (Ratio) OSGEN1,"MDA-MB-231 cells; mRNA, MDA-MB-231 cells, 24-h treatment, ID PH_hs_0002700",3.513
same,log2 (Ratio) C18orf25,"MDA-MB-231 cells; mRNA, MDA-MB-231 cells, 24-h treatment, ID PH_hs_0002812",2.668
same,log2 (Ratio) ZNF77,"MDA-MB-231 cells; mRNA, MDA-MB-231 cells, 24-h treatment, ID PH_hs_0002971",2.665
same,log2 (Ratio) PDGFC,"MDA-MB-231 cells; mRNA, MDA-MB-231 cells, 24-h treatment, ID PH_hs_0003147",−2.534
same,log2 (Ratio) SMIM13,"MDA-MB-231 cells; mRNA, MDA-MB-231 cells, 24-h treatment, ID PH_hs_0003180",2.646
same,log2 (Ratio) PPP1R15A,"MDA-MB-231 cells; mRNA, MDA-MB-231 cells, 24-h treatment, ID PH_hs_0004421",5.381
same,log2 (Ratio) GEM,"MDA-MB-231 cells; mRNA, MDA-MB-231 cells, 24-h treatment, ID PH_hs_0004561",3.997
same,log2 (Ratio) MMP1,"MDA-MB-231 cells; mRNA, MDA-MB-231 cells, 24-h treatment, ID PH_hs_0004751",3.219
same,log2 (Ratio) LMNB1,"MDA-MB-231 cells; mRNA, MDA-MB-231 cells, 24-h treatment, ID PH_hs_0004988",−2.878
same,log2 (Ratio) ZFAND2A,"MDA-MB-231 cells; mRNA, MDA-MB-231 cells, 24-h treatment, ID PH_hs_0006387",6.274
same,log2 (Ratio) F2R,"MDA-MB-231 cells; mRNA, MDA-MB-231 cells, 24-h treatment, ID PH_hs_0007383",−2.717
same,log2 (Ratio) TOP2A,"MDA-MB-231 cells; mRNA, MDA-MB-231 cells, 24-h treatment, ID PH_hs_0009437",−3.052
same,log2 (Ratio) DUSP1,"MDA-MB-231 cells; mRNA, MDA-MB-231 cells, 24-h treatment, ID PH_hs_0010276",4.189
same,log2 (Ratio) TXNIP|LOC101060503,"MDA-MB-231 cells; mRNA, MDA-MB-231 cells, 24-h treatment, ID PH_hs_0010634",−2.66
same,log2 (Ratio) H1F0,"MDA-MB-231 cells; mRNA, MDA-MB-231 cells, 24-h treatment, ID PH_hs_0012629",−2.89
same,log2 (Ratio) BRF2,"MDA-MB-231 cells; mRNA, MDA-MB-231 cells, 24-h treatment, ID PH_hs_0014119",2.572
same,log2 (Ratio) HSPA1B,"MDA-MB-231 cells; mRNA, MDA-MB-231 cells, 24-h treatment, ID PH_hs_0014155",2.836
same,log2 (Ratio) METTL7A,"MDA-MB-231 cells; mRNA, MDA-MB-231 cells, 24-h treatment, ID PH_hs_0014995",−3.653
same,log2 (Ratio) CLK1,"MDA-MB-231 cells; mRNA, MDA-MB-231 cells, 24-h treatment, ID PH_hs_0020147",2.804
same,log2 (Ratio) DNAJC3,"MDA-MB-231 cells; mRNA, MDA-MB-231 cells, 24-h treatment, ID PH_hs_0021974",3.011
same,log2 (Ratio) CLCF1,"MDA-MB-231 cells; mRNA, MDA-MB-231 cells, 24-h treatment, ID PH_hs_0022919",2.961
same,log2 (Ratio) FRS2,"MDA-MB-231 cells; mRNA, MDA-MB-231 cells, 24-h treatment, ID PH_hs_0023008",3.242
same,log2 (Ratio) C21orf91,"MDA-MB-231 cells; mRNA, MDA-MB-231 cells, 24-h treatment, ID PH_hs_0023556",2.733
same,log2 (Ratio) HSPA5,"MDA-MB-231 cells; mRNA, MDA-MB-231 cells, 24-h treatment, ID PH_hs_0023711",2.599
same,log2 (Ratio) BBS2,"MDA-MB-231 cells; mRNA, MDA-MB-231 cells, 24-h treatment, ID PH_hs_0023845",−3.269
same,log2 (Ratio) CBY1,"MDA-MB-231 cells; mRNA, MDA-MB-231 cells, 24-h treatment, ID PH_hs_0023862",−2.551
same,log2 (Ratio) TRIB3,"MDA-MB-231 cells; mRNA, MDA-MB-231 cells, 24-h treatment, ID PH_hs_0023894",2.584
same,log2 (Ratio) CDKN1A,"MDA-MB-231 cells; mRNA, MDA-MB-231 cells, 24-h treatment, ID PH_hs_0024155",2.904
same,log2 (Ratio) ATP2A2,"MDA-MB-231 cells; mRNA, MDA-MB-231 cells, 24-h treatment, ID PH_hs_0024236",2.548
same,log2 (Ratio) DNAJB4,"MDA-MB-231 cells; mRNA, MDA-MB-231 cells, 24-h treatment, ID PH_hs_0024315",3.075
same,log2 (Ratio) C3orf52,"MDA-MB-231 cells; mRNA, MDA-MB-231 cells, 24-h treatment, ID PH_hs_0025319",3.562
same,log2 (Ratio) CLU,"MDA-MB-231 cells; mRNA, MDA-MB-231 cells, 24-h treatment, ID PH_hs_0025525",3.198
same,log2 (Ratio) CTDSP1,"MDA-MB-231 cells; mRNA, MDA-MB-231 cells, 24-h treatment, ID PH_hs_0025966",−2.552
same,log2 (Ratio) RMND5A,"MDA-MB-231 cells; mRNA, MDA-MB-231 cells, 24-h treatment, ID PH_hs_0027152",3.038
same,log2 (Ratio) SLC3A2,"MDA-MB-231 cells; mRNA, MDA-MB-231 cells, 24-h treatment, ID PH_hs_0027162",2.961
same,log2 (Ratio) GADD45B,"MDA-MB-231 cells; mRNA, MDA-MB-231 cells, 24-h treatment, ID PH_hs_0027209",2.665
same,log2 (Ratio) FAM20C,"MDA-MB-231 cells; mRNA, MDA-MB-231 cells, 24-h treatment, ID PH_hs_0027843",−2.724
same,log2 (Ratio) LRRC45,"MDA-MB-231 cells; mRNA, MDA-MB-231 cells, 24-h treatment, ID PH_hs_0027863",−2.718
